# Test results from patent US20120065165A1, “COMPOSITIONS AND METHODS OF TREATING ENDOTHELIAL DISORDERS” (ARGINETIX, INC, priority 2008, published 2012).
# Like-named read-outs stand apart in the source and are kept apart here.
# Key:
# old rat aortic segments = test: NO production in aortic rings (slope of DAF fluorescence); type: cell-based; details: old/aged rat aorta
# Text: ABH improves endothelial function by inhibiting arginase and consequently increasing NO production (by increasing L-arginine availability to eNOS) and decreasing levels of ROS (by preventing eNOS uncoupling). […] Aortic rings were dissected and pinned down, endothelial side up, on a silastic coated culture dish, and then exposed to either the NO-sensitive dye DAF, or the O2-sensitive dye DHE. Since the interaction of NO or ROS with its specific dye is cumulative, the rate of production of each species is proportional to the slope of the fluorescence emitted from the dye as measured using epifluorescence microscopy. […] SNP endothelial-independent NO donor was included as a control (Santhanam et al 2007).
# [1] = system: lambs with chemically induced PAH; details: cited from earlier work
# arginase [2] = details: cited from earlier work
# [3] = in vivo; cited from earlier work
# arginase [4] = details: internal anal sphincter; cited from earlier work
# patients with PAH [5] = details: oral administration; cited from earlier work
# [6] = system: hypoxia-induced pulmonary hypertension; details: cited from earlier work
# rat aortic tissues = test: cGMP levels in aortic rings of old rats incubated with sildenafil and ABH (cGMP EIA); type: cell-based; details: ABH 0 nM
# Method: The source of tissue was old (22 to 24 months) male Fischer 344 rats purchased from National Institute for Aging (NIA). The rats were anesthetized in an isoflurane chamber and euthanized. The entire length of the aorta (thoracic, arch, abdominal) were dissected out and cleaned free of connective tissue. These aorta were then sectioned into ˜3 mm long rings. Samples were collected from 2 rats and pooled. […] Rings were incubated in varying concentrations of sildenafil (0-2000 nM) and ABH (0-500 nM) prepared in 200 μL Krebs buffer for 10 min at 37° C. The rings were then snap frozen in liquid nitrogen following treatment. The next day, samples were homogenized in 200 μL 6% TCA buffer (prepared by adding TCA to DI water) at 4° C. for extraction of cyclic nucleotides. The samples were then centrifuged at 12,000 rpm for 5 min at 4° C. Protein pellets were re-dissolved in PBS to determine protein concentration, and supernatant was reserved for cGMP detection. […] ABH (MW 211.45): A stock solution of ABH at a concentration of 100 mM was prepared by dissolving 21.1 mg of ABH into 1 ml Krebs solution. This was used to prepare 5 ml of a 1 mM stock. 200 μL of the 1 mM solution were dispensed into column 12 of a 96-well plate. Six 2× dilutions were prepared in the plate. 200 μL Krebs were dispensed in column 5 to get a concentration range of 0-1000 nM (2× of final concentration). Sildenafil (MW 474.5): A stock solution of sildenafil at a concentartion of 100 mM was prepared by dissolving 47.4 mg of sildenafil into 1 ml Krebs solution; 5 ml of 2 mM stock was prepared from this. Row A received 200 μL of Krebs buffer (0 mM sildenafil), mixed well, and adjusted to a final volume of 200 μL. Next, 200 μL of the 2 mM sildenafil stock was dispensed into row H of the 96 well plate already containing the ABH dilutions ([…]). Six 2× dilutions were prepared from this to get the final concentration ranges for the two drugs. cGMP levels were determined with a cGMP kit (Amersham cGMP Enzyme immunoassay Biotrak (EIA) System Cat #RPN226) and run in accordance with the manufacture's recommendations. The assay uses a competitive fluorescent immunoassay format to measure levels of cGMP. It combines the use of a peroxidase-labelled cGMP conjugate, a specific antiserum which can be immobilized on to pre-coated microplates, and a one-pot stabilized substrate solution. […] In the absence of cGMP most of the HRP conjugate is bound to the antibody and yields a high fluorescence. Increasing concentrations of cGMP competitively decreases the binding of the HRP conjugate, decreasing the measured fluorescence (HRP activity). […] The plate was then incubated for 2 hrs at room temperature with shaking after which it is washed and the fluorescent substrate is added. The plate was incubated for an additional 10 min and then read on a Molecular Devices Gemini EM plate reader set at Ex 530 nm, Em 590 nm (endpoint mode). The signal is reported to be stable for up to 24 hrs, but was generally read within 2 hrs. […] These values were calculated based on the resultant ratio of fluorescence reading of sample divided by fluorescense reading with no cGMP (pmols/mg). For each concentration combination of sildenafil and ABH administered to cells, absorbance (OD at 450 nm) was measured. From these values, the absorbance adjusted for non-specific binding (NSB) for each sample (OD-NSB(B)) was determined from the absorbance (B) divided by the absorbance without cGMP (Bo). Using this value and the standard curve for cGMP, the log (fmol) is found and, after adjusting for the quantity of protein, the pmols of cGMP/mg protein is calculated.
# patients with PAH [7] = details: three times daily; cited from earlier work
# PDE1 = details: pulmonary vascular tissue; cited from earlier work
smiles,measurement,setting,value
"N[C@@H](CSCCB(O)O)C(=O)O [BEC, S-(2-Boronoethyl)-L-cysteine]",NO production (slope of the DAF fluorescence),old rat aortic segments,augments NO production
CCCOc1ccccc1-c1nc2nn[nH]c2c(=O)[nH]1 [Zaprinast],pulmonary vasodilation induced by inhaled NO,[1]; lambs with chemically induced PAH,potentiates and markedly prolongs
"N=C(NO)NCC[C@H](N)C(=O)O [nor-NOHA, N^ω-hydroxy-nor-L-arginine]",in vivo inhibition of serum arginase,arginase [2],inhibition of serum arginase
same,bioavailability,[3],poor bioavailability
"N=C(NO)NCCC[C@H](N)C(=O)O [L-HO-Arg, Nω-hydroxy-L-arginine]",NANC relaxation suppressed by excess arginase,arginase [4],restored
CCCc1nn(C)c2c(=O)[nH]c(-c3cc(S(=O)(=O)N4CCN(C)CC4)ccc3OCC)nc12 [sildenafil],pulmonary vasodilator response to inhaled NO,"[1]; aerosolized form, lambs with PAH",augmented
same,pulmonary vasodilation,patients with PAH [5],selective pulmonary vasodilation
same,hypoxia-induced pulmonary hypertension,[6]; mice lacking NOS3 (eNOS),little effect
same,hypoxia-induced pulmonary hypertension,"[6]; mouse, in vivo",substantially ablated
same,"Theoretical response T(x,y) based on an additive effect",rat aortic tissues; sildenafil 31 nM,0.27 pmol/mg
same,"pmols of cGMP/mg protein produced P(x,y)",rat aortic tissues; sildenafil 31 nM,0.27 pmols/mg
same,"Theoretical response T(x,y) based on an additive effect",rat aortic tissues; sildenafil 125 nM,2.56 pmol/mg
same,"pmols of cGMP/mg protein produced P(x,y)",rat aortic tissues; sildenafil 125 nM,2.56 pmols/mg
same,"Theoretical response T(x,y) based on an additive effect",rat aortic tissues; sildenafil 500 nM,0.88 pmol/mg
same,"pmols of cGMP/mg protein produced P(x,y)",rat aortic tissues; sildenafil 500 nM,0.88 pmols/mg
same,"Theoretical response T(x,y) based on an additive effect",rat aortic tissues; sildenafil 2000 nM,0.80 pmol/mg
same,"pmols of cGMP/mg protein produced P(x,y)",rat aortic tissues; sildenafil 2000 nM,0.80 pmols/mg
same,WHO functional class,patients with PAH [7],improved
same,exercise capacity (6-minute walk test),patients with PAH [7],improved
same,pulmonary arterial pressure,patients with PAH [7],decreased
same,pulmonary vascular resistance,patients with PAH [7],decreased
CCOC(=O)C1=C[C@]2(CC)CCCN3CCc4c(n1c1ccccc41)[C@@H]32 [vinpocetine],NO-stimulated dilation,PDE1,enhances
same,basal cGMP or cAMP,PDE1,little effect
